Measured values taken from ChEMBL document CHEMBL1201861, “Genomics of Drug Sensitity in Cancer screening data, Wellcome Trust Sanger Institute”.

Legend:
Experiment in all cases: cells
Details in all cases: Homo sapiens
MS-1 = type: functional, cell-based
Description: SANGER: Inhibition of human MS-1 cell growth in a cell viability assay.

GB-1 = type: functional, cell-based
Description: SANGER: Inhibition of human GB-1 cell growth in a cell viability assay.

NCI-H1770 = type: functional, cell-based
Description: SANGER: Inhibition of human NCI-H1770 cell growth in a cell viability assay.

COLO-684 = type: functional, cell-based
Description: SANGER: Inhibition of human COLO-684 cell growth in a cell viability assay.

LAN-6 = type: functional, cell-based
Description: SANGER: Inhibition of human LAN-6 cell growth in a cell viability assay.

MHH-PREB-1 = type: functional, cell-based
Description: SANGER: Inhibition of human MHH-PREB-1 cell growth in a cell viability assay.

RPMI-8866 = type: functional, cell-based
Description: SANGER: Inhibition of human RPMI-8866 cell growth in a cell viability assay.

HD-MY-Z = type: functional, cell-based
Description: SANGER: Inhibition of human HD-MY-Z cell growth in a cell viability assay.

DB = type: functional, cell-based
Description: SANGER: Inhibition of human DB cell growth in a cell viability assay.

RCC10RGB = type: functional, cell-based
Description: SANGER: Inhibition of human RCC10RGB cell growth in a cell viability assay.

EOL1 = type: functional, cell-based
Description: SANGER: Inhibition of human EoL-1-cell cell growth in a cell viability assay.

A498 = type: functional, cell-based
Description: SANGER: Inhibition of human A498 cell growth in a cell viability assay.

AM-38 = type: functional, cell-based
Description: SANGER: Inhibition of human AM-38 cell growth in a cell viability assay.

SNU1 = type: functional, cell-based
Description: SANGER: Inhibition of human NCI-SNU-1 cell growth in a cell viability assay.

ECC4 = type: functional, cell-based
Description: SANGER: Inhibition of human ECC4 cell growth in a cell viability assay.

HC-1 = type: functional, cell-based
Description: SANGER: Inhibition of human HC-1 cell growth in a cell viability assay.

TE-12 = type: functional, cell-based
Description: SANGER: Inhibition of human TE-12 cell growth in a cell viability assay.

Calu-6 = type: functional, cell-based
Description: SANGER: Inhibition of human Calu-6 cell growth in a cell viability assay.

A704 = type: functional, cell-based
Description: SANGER: Inhibition of human A704 cell growth in a cell viability assay.

ES1 = type: functional, cell-based
Description: SANGER: Inhibition of human ES1 cell growth in a cell viability assay.

CPC-N = type: functional, cell-based
Description: SANGER: Inhibition of human CPC-N cell growth in a cell viability assay.

KM12 = type: functional, cell-based
Description: SANGER: Inhibition of human KM12 cell growth in a cell viability assay.

SW 962 = type: functional, cell-based
Description: SANGER: Inhibition of human SW962 cell growth in a cell viability assay.

OCI-AML2 = type: functional, cell-based
Description: SANGER: Inhibition of human OCI-AML2 cell growth in a cell viability assay.

SF-126 = type: functional, cell-based
Description: SANGER: Inhibition of human SF126 cell growth in a cell viability assay.

IST-SL1 = type: functional, cell-based
Description: SANGER: Inhibition of human IST-SL1 cell growth in a cell viability assay.

NCI-H1155 = type: functional, cell-based
Description: SANGER: Inhibition of human NCI-H1155 cell growth in a cell viability assay.

LB831-BLC = type: functional, cell-based
Description: SANGER: Inhibition of human LB831-BLC cell growth in a cell viability assay.

MN-60 = type: functional, cell-based
Description: SANGER: Inhibition of human MN-60 cell growth in a cell viability assay.

SF-268 = type: functional, cell-based
Description: SANGER: Inhibition of human SF268 cell growth in a cell viability assay.

697 = type: functional, cell-based
Description: SANGER: Inhibition of human 697 cell growth in a cell viability assay.

no-11 = type: functional, cell-based
Description: SANGER: Inhibition of human no-11 cell growth in a cell viability assay.

SNB-75 = type: functional, cell-based
Description: SANGER: Inhibition of human SNB75 cell growth in a cell viability assay.

RS4-11 = type: functional, cell-based
Description: SANGER: Inhibition of human RS4-11 cell growth in a cell viability assay.

NCI-H1838 = type: functional, cell-based
Description: SANGER: Inhibition of human NCI-H1838 cell growth in a cell viability assay.

HuTu80 = type: functional, cell-based, HUTU-80
Description: SANGER: Inhibition of human HUTU-80 cell growth in a cell viability assay.

RPMI-8226 = type: functional, cell-based
Description: SANGER: Inhibition of human RPMI-8226 cell growth in a cell viability assay.

NCI-H1355 = type: functional, cell-based
Description: SANGER: Inhibition of human NCI-H1355 cell growth in a cell viability assay.

CP66-MEL = type: functional, cell-based
Description: SANGER: Inhibition of human CP66-MEL cell growth in a cell viability assay.

NB13 = type: functional, cell-based
Description: SANGER: Inhibition of human NB13 cell growth in a cell viability assay.

LB2518-MEL = type: functional, cell-based
Description: SANGER: Inhibition of human LB2518-MEL cell growth in a cell viability assay.

SK-LMS-1 = type: functional, cell-based
Description: SANGER: Inhibition of human SK-LMS-1 cell growth in a cell viability assay.

GAK = type: functional, cell-based
Description: SANGER: Inhibition of human GAK cell growth in a cell viability assay.

SW982 = type: functional, cell-based
Description: SANGER: Inhibition of human SW982 cell growth in a cell viability assay.

ES6 = type: functional, cell-based
Description: SANGER: Inhibition of human ES6 cell growth in a cell viability assay.

MV4-11 = type: functional, cell-based, MV-4-11
Description: SANGER: Inhibition of human MV-4-11 cell growth in a cell viability assay.

KM-H2 = type: functional, cell-based
Description: SANGER: Inhibition of human KM-H2 cell growth in a cell viability assay.

C8166 = type: functional, cell-based
Description: SANGER: Inhibition of human C8166 cell growth in a cell viability assay.

HH = type: functional, cell-based
Description: SANGER: Inhibition of human HH cell growth in a cell viability assay.

QIMR-WIL = type: functional, cell-based
Description: SANGER: Inhibition of human QIMR-WIL cell growth in a cell viability assay.

ML-2 = type: functional, cell-based
Description: SANGER: Inhibition of human ML-2 cell growth in a cell viability assay.

KINGS-1 = type: functional, cell-based
Description: SANGER: Inhibition of human KINGS-1 cell growth in a cell viability assay.

OCUB-M = type: functional, cell-based
Description: SANGER: Inhibition of human OCUB-M cell growth in a cell viability assay.

JAR = type: functional, cell-based
Description: SANGER: Inhibition of human JAR cell growth in a cell viability assay.

LS-1034 = type: functional, cell-based
Description: SANGER: Inhibition of human LS-1034 cell growth in a cell viability assay.

## COc1cc(C)c(Sc2cnc(NC(=O)c3ccc(CNC(C)C(C)(C)C)cc3)s2)cc1C(=O)N1CCN(C(C)=O)CC1 (stereo not given)
MS-1
  IC50: > 10.2 µM
GB-1
  IC50: 9.12 µM
NCI-H1770
  IC50: > 10.2 µM
COLO-684
  IC50: > 10.2 µM
LAN-6
  IC50: 7.29 µM
MHH-PREB-1
  IC50: > 10.2 µM
RPMI-8866
  IC50: > 10.2 µM
HD-MY-Z
  IC50: 9.44 µM
DB
  IC50: > 10.2 µM
RCC10RGB
  IC50: > 10.2 µM
EOL1
  IC50: > 10.2 µM
A498
  IC50: > 10.2 µM
AM-38
  IC50: > 10.2 µM
SNU1
  IC50: > 10.2 µM
ECC4
  IC50: > 10.2 µM
HC-1
  IC50: > 10.2 µM
TE-12
  IC50: 2.42 µM
Calu-6
  IC50: > 10.2 µM
A704
  IC50: > 10.2 µM
ES1
  IC50: 7.44 µM
CPC-N
  IC50: > 10.2 µM
KM12
  IC50: 2.84 µM
SW 962
  IC50: 8.13 µM
OCI-AML2
  IC50: 7.48 µM
SF-126
  IC50: > 10.2 µM
IST-SL1
  IC50: > 10.2 µM
NCI-H1155
  IC50: > 10.2 µM
LB831-BLC
  IC50: 6.16 µM
MN-60
  IC50: > 10.2 µM
SF-268
  IC50: > 10.2 µM
697
  IC50: 6.66 µM
no-11
  IC50: > 10.2 µM
SNB-75
  IC50: 7.11 µM
RS4-11
  IC50: 5.79 µM
NCI-H1838
  IC50: > 10.2 µM
HuTu80
  IC50: > 10.2 µM
RPMI-8226
  IC50: > 10.2 µM
NCI-H1355
  IC50: 6.22 µM
CP66-MEL
  IC50: > 10.2 µM
NB13
  IC50: > 10.2 µM
LB2518-MEL
  IC50: > 10.2 µM
SK-LMS-1
  IC50: > 10.2 µM
GAK
  IC50: > 10.2 µM
SW982
  IC50: 2.91 µM
ES6
  IC50: 2.12 µM
MV4-11
  IC50: 5.88 µM
KM-H2
  IC50: > 10.2 µM
C8166
  IC50: > 10.2 µM
HH
  IC50: > 10.2 µM
QIMR-WIL
  IC50: 10.1 µM
ML-2
  IC50: 3.81 µM
KINGS-1
  IC50: > 10.2 µM
OCUB-M
  IC50: > 10.2 µM
JAR
  IC50: > 10.2 µM
LS-1034
  IC50: 7.42 µM

## CCNc1cc(N[C@H]2CC[C@@H](O)CC2)nc(Nc2ccc3c(ccn3Cc3ccccc3)c2)n1
MS-1
  IC50: > 5.12 µM
GB-1
  IC50: > 5.12 µM
NCI-H1770
  IC50: 5.08 µM
COLO-684
  IC50: > 5.12 µM
LAN-6
  IC50: > 5.12 µM
MHH-PREB-1
  IC50: > 5.12 µM
RPMI-8866
  IC50: > 5.12 µM
HD-MY-Z
  IC50: > 5.12 µM
DB
  IC50: > 5.12 µM
RCC10RGB
  IC50: > 5.12 µM
EOL1
  IC50: > 5.12 µM
A498
  IC50: > 5.12 µM
AM-38
  IC50: > 5.12 µM
SNU1
  IC50: > 5.12 µM
ECC4
  IC50: > 5.12 µM
HC-1
  IC50: > 5.12 µM
TE-12
  IC50: 5.05 µM
Calu-6
  IC50: > 5.12 µM
A704
  IC50: > 5.12 µM
ES1
  IC50: > 5.12 µM
CPC-N
  IC50: > 5.12 µM
KM12
  IC50: > 5.12 µM
SW 962
  IC50: > 5.12 µM
OCI-AML2
  IC50: > 5.12 µM
SF-126
  IC50: > 5.12 µM
IST-SL1
  IC50: > 5.12 µM
NCI-H1155
  IC50: > 5.12 µM
LB831-BLC
  IC50: > 5.12 µM
MN-60
  IC50: > 5.12 µM
SF-268
  IC50: > 5.12 µM
697
  IC50: 4.17 µM
no-11
  IC50: > 5.12 µM
SNB-75
  IC50: > 5.12 µM
RS4-11
  IC50: 3.74 µM
NCI-H1838
  IC50: > 5.12 µM
HuTu80
  IC50: > 5.12 µM
RPMI-8226
  IC50: > 5.12 µM
NCI-H1355
  IC50: > 5.12 µM
CP66-MEL
  IC50: > 5.12 µM
NB13
  IC50: > 5.12 µM
LB2518-MEL
  IC50: > 5.12 µM
SK-LMS-1
  IC50: > 5.12 µM
GAK
  IC50: > 5.12 µM
SW982
  IC50: > 5.12 µM
ES6
  IC50: > 5.12 µM
MV4-11
  IC50: > 5.12 µM
KM-H2
  IC50: > 5.12 µM
C8166
  IC50: > 5.12 µM
HH
  IC50: > 5.12 µM
QIMR-WIL
  IC50: > 5.12 µM
ML-2
  IC50: > 5.12 µM
KINGS-1
  IC50: > 5.12 µM
OCUB-M
  IC50: > 5.12 µM
JAR
  IC50: > 5.12 µM
LS-1034
  IC50: > 5.12 µM
